# Assays:
# Type in all cases: functional
# Settings in all cases: inhaled or nasal
# Mus musculus [1] = test: Compound was tested for percentage survival of immunocompromized CF-1 mice infected by inhalation with Aspergillus flavus strain ND134 at dose 50 mg/Kg
# Mus musculus [2] = test: Compound was tested for percentage survival of immunocompromized CF-1 mice infected by inhalation with Aspergillus flavus strain ND134 at dose 100 mg/Kg
# Mus musculus [3] = test: Compound was tested for percentage survival of normal CF-1 Mice infected […] albicans strain C-65 colony forming units at dose 25 mg/Kg
# Mus musculus [4] = test: Compound was tested for percentage survival of normal CF-1 Mice infected […] albicans strain C-65 colony forming units at dose 50 mg/Kg
# Mus musculus [5] = test: Compound was tested for percentage survival of immunocompromized CF-1 mice infected […] albicans strain C-65 colony forming units at dose 25 mg/Kg
# Mus musculus [6] = test: Compound was tested for percentage survival of immunocompromized CF-1 mice infected […] albicans strain C-65 colony forming units at dose 50 mg/Kg
# Mus musculus [7] = test: Compound was tested for percentage survival of immunocompromized CF-1 mice infected by inhalation with Aspergillus fumigatus strain ND142 conidia at dose 100 mg/Kg
# Mus musculus [8] = test: Compound was tested for percentage survival of immunocompromized CF-1 mice infected by inhalation with Aspergillus fumigatus strain ND142 conidia at dose 50 mg/Kg
# Mus musculus [9] = test: Compound was tested for percentage survival of immunocompromized CF-1 mice infected […] albicans strain C-65 colony forming units at dose 10 mg/Kg
# Mus musculus [10] = test: Compound was tested for percentage survival of normal CF-1 Mice infected […] albicans strain C-65 colony forming units at dose 10 mg/Kg
# Mus musculus [11] = test: Compound was tested for percentage survival of normal CF-1 Mice infected […] albicans strain C-65 colony forming units at dose 1 mg/kg
SMILES,survival at 50 mg/kg (Mus musculus [1]),survival at 100 mg/kg (Mus musculus [2]),survival at 25 mg/kg (Mus musculus [3]),survival at 50 mg/kg (Mus musculus [4]),survival at 25 mg/kg (Mus musculus [5]),survival at 50 mg/kg (Mus musculus [6]),survival at 100 mg/kg (Mus musculus [7]),survival at 50 mg/kg (Mus musculus [8]),survival at 10 mg/kg (Mus musculus [9]),survival at 10 mg/kg (Mus musculus [10]),survival at 1 mg/kg (Mus musculus [11])
O=c1n(-c2ccc(N3CCN(c4ccc(OC[C@@H]5CC[C@@](Cn6cncn6)(c6ccc(F)cc6F)C5)cc4)CC3)cc2)cnn1C1CCCC1,40%,50%,50%,70%,,,,,,,
CCC(C)n1ncn(-c2ccc(N3CCN(c4ccc(OC[C@H]5CO[C@](Cn6cncn6)(c6cc(F)cc(F)c6)O5)cc4)CC3)cc2)c1=O (some centres undefined),,,20%,30%,0%,0%,,,,,
CC(C)n1ncn(-c2ccc(N3CCN(c4ccc(OC[C@@H]5CC[C@@](Cn6cncn6)(c6ccc(F)cc6F)C5)cc4)CC3)cc2)c1=O,,,,,,,10%,10%,,,
CCC(CC)n1ncn(-c2ccc(N3CCN(c4ccc(OC[C@@H]5CO[C@@](Cn6cncn6)(c6ccc(F)cc6F)C5)cc4)CC3)cc2)c1=O,60%,,100%,,30%,50%,,70%,20%,100%,80%
"CCC(C)n1ncn(-c2ccc(N3CCN(c4ccc(OC[C@@H]5CO[C@@](Cn6cncn6)(c6ccc(F)cc6F)C5)cc4)CC3)cc2)c1=O (single isomer, unassigned)",80%,90%,90%,100%,40%,40%,30%,10%,30%,80%,
OC(Cn1cncn1)(Cn1cncn1)c1ccc(F)cc1F [FLUCONAZOLE],,,100%,,40%,,,,30%,90%,0%
CCC(C)n1ncn(-c2ccc(N3CCN(c4ccc(OC[C@H]5CO[C@](Cn6cncn6)(c6ccc(Cl)cc6Cl)O5)cc4)CC3)cc2)c1=O (some centres undefined) [ITRACONAZOLE],,20%,0%,40%,0%,20%,10%,,,,

# From ChEMBL document CHEMBL1128898, “Sch 51048, a novel broad-spectrum orally active antifungal agent: Synthesis and preliminary structure-activity profile” (1995)
